Experimental data as given in PubChem BioAssay (NCI).
Values joined by “and” are separate entries in the source; they are usually repeats but may differ in a detail not shown here. Equal values may be shown once.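 Compound exposure: 48 hours, 5 concentrations, 96-well plates. Here, GI50 denotes the concentration required for 50% inhibition of growth. TGI: total growth inhibition.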

Each compound was assayed on CAKI-1 renal (assay: NCI-60 cell line screen, 48 h).

Compared with `COc1cccc(Nc2nc(-c3cccs3)nc3cc(OC)c(OC)cc23)c1`, `COc1ccc(CN2C(=O)/C(=C\c3cc(OC)c(OC)c(OC)c3)c3ccccc32)cc1` is 3.6-fold lower in TGI: 73.4 µM for the first, 20.3 µM for the second.

Going from `O=C1c2cc3c(cc2-c2c1c1ccc(F)cc1c(=O)n2C[C@H](O)[C@@H](O)[C@H](O)CO)OCO3` to `COC(=O)[C@@H](O)[C@](O)(CCC(C)C)C(=O)O[C@@H]1C(OC)=C[C@]23CCCN2CCc2cc4c(cc2[C@H]13)OCO4`, the TGI rises from 0.371 µM to 7.36 µM (20-fold).

`COc1ccc2[nH]cc(/C=C(/C)c3ccncc3)c2c1` and `COc1ccc(-n2c(C)nc3ccc(NC(=S)Nc4ccccc4)cc3c2=O)cc1` cannot be ordered by TGI: > 100 µM for the first, > 100 µM for the second.

`Cc1cc(Nc2ccc(S(=O)(=O)O)c3cc(S(=O)(=O)O)cc(S(=O)(=O)O)c23)c2ccccc2n1` and `Cc1cc(C)nc(NS(=O)(=O)c2ccc(NC(=O)c3ccc4nc5ccccc5c(Nc5ccc(S(N)(=O)=O)cc5)c4c3)cc2)n1` cannot be ordered by TGI: > 100 µM for the first, > 100 µM for the second.

`CC1(C(=O)O)CCC2(C)CCC3(C)C(=CC(=O)C4C5(C)CCC(O)C(C)(C)C5CCC43C)C2C1` (stereo unspecified) and `CCC(=O)NCC1CCCN2CCCCC12` (stereo unspecified) cannot be ordered by TGI: > 100 µM for the first, > 100 µM for the second.

Compared with `Cn1c2ccc3cc2c(=S)c2cc(ccc21)OCCOCCOCCOCCOCCOCCO3`, `COc1ccc2cc1Oc1ccc(cc1)C[C@H]1c3cc(c(OC)cc3CCN1C)Oc1c(O)c(OC)cc3c1[C@H](C2)N(C)CC3` is lower in TGI: > 10 µM for the first, 3.55 µM for the second.

`CC1(C)O[C@H]2OC(CO[Si](C)(C)C(C)(C)C)C(N=[N+]=[N-])[C@H]2O1` (stereo partly specified) and `O=C1C=C[C@@H](COC2OC(CO)C(O)C(O)C2O)O1` (stereo partly specified) are within 1.5-fold of each other in TGI: 42.5 µM for the first, 40 µM for the second.

`O=[N+]([O-])c1ccc(Cl)cc1N/N=C/c1ccnc2ccccc12` and `O=C(Cc1ccc(O)c(O)c1)NCc1c[nH]c2ccccc12` cannot be ordered by TGI: > 100 µM for the first, > 100 µM for the second.

`Nc1ncnc2c1[nH]c(=O)n2-c1ccccc1` and `COc1nncc2[nH]c(-c3ccccc3)cc12` cannot be ordered by TGI: > 100 µM for the first, > 100 µM for the second.

`CC1CN(C)c2ccccc2N=C1NN` (stereo unspecified) and `O=C(NCc1ccccc1)c1n[nH][nH]c1=O` cannot be ordered by TGI: > 100 µM for the first, > 100 µM for the second.

`CC(=O)Oc1cccc2c1C(=O)CCCC2` and `O=S(=O)(c1ccccc1)c1cccc2c1NCCC2` cannot be ordered by TGI: > 100 µM for the first, > 100 µM for the second.

`Cc1ccc(NC(=O)CC2Sc3ccccc3NC2=O)cc1C` (stereo unspecified) and `Cc1ccc(N(Cc2ccccc2)Cc2ccccc2)cc1` cannot be ordered by TGI: > 100 µM for the first, > 100 µM for the second.

`CCC(=O)NC(Nc1cc(C)on1)(C(F)(F)F)C(F)(F)F` and `CCOP(=O)(OCC)C(F)(F)c1ccc(CC(NC(=O)OC(C)(C)C)C(=O)O)cc1` (stereo unspecified) cannot be ordered by TGI: > 100 µM for the first, > 10 µM for the second.

`NC(=O)C(=Cn1c(=S)[nH]c2ccc([N+](=O)[O-])cc21)C(N)=O` and `c1ccc2c3[nH]c(c2c1)=Nc1ccc(cc1)-c1nc2cc(ccc2o1)N=c1[nH]c(c2ccccc12)=Nc1ccc2nc(oc2c1)-c1ccc(cc1)N=3` cannot be ordered by TGI: > 100 µM for the first, > 100 µM for the second.

Going from `O=C1c2cc3c(cc2-c2c1c1ccc(F)cc1c(=O)n2C[C@H](O)[C@@H](O)[C@H](O)CO)OCO3` to `COc1ccc(CN2C(=O)/C(=C\c3cc(OC)c(OC)c(OC)c3)c3ccccc32)cc1`, the GI50 rises from 0.0383 µM to 2.63 µM (69-fold).

For `Cc1ccc(-c2cc(-c3ccco3)c(C#N)c(=S)n2C2OC(CO)C(O)C(O)C2O)cc1` (stereo unspecified), the GI50 was 17.6 µM and > 100 µM.

`Cc1ccc(-c2cc(-c3ccco3)c(C#N)c(=S)n2C2OC(CO)C(O)C(O)C2O)cc1` (stereo unspecified) was tested, and the TGI was 46.9 µM and > 100 µM.

These compounds were tested on SW-620 colon (assay: NCI-60 cell line screen, 48 h).

First: COc1cccc(Nc2nc(-c3cccs3)nc3cc(OC)c(OC)cc23)c1
Second: COc1ccc(CN2C(=O)/C(=C\c3cc(OC)c(OC)c(OC)c3)c3ccccc32)cc1
The TGI of the first is 11-fold higher: 52.4 µM for the first, 4.85 µM for the second.

`Cc1cc(Nc2ccc(S(=O)(=O)O)c3cc(S(=O)(=O)O)cc(S(=O)(=O)O)c23)c2ccccc2n1` and `Cc1cc(C)nc(NS(=O)(=O)c2ccc(NC(=O)c3ccc4nc5ccccc5c(Nc5ccc(S(N)(=O)=O)cc5)c4c3)cc2)n1` cannot be ordered by TGI: > 100 µM for the first, > 100 µM for the second.

First: CC1(C(=O)O)CCC2(C)CCC3(C)C(=CC(=O)C4C5(C)CCC(O)C(C)(C)C5CCC43C)C2C1 (stereo unspecified)
Second: COC(=O)[C@@H](O)[C@](O)(CCC(C)C)C(=O)O[C@@H]1C(OC)=C[C@]23CCCN2CCc2cc4c(cc2[C@H]13)OCO4
The TGI of the first is higher: > 100 µM for the first, 9.94 µM for the second.

`Cn1c2ccc3cc2c(=S)c2cc(ccc21)OCCOCCOCCOCCOCCOCCO3` and `COc1ccc2cc1Oc1ccc(cc1)C[C@H]1c3cc(c(OC)cc3CCN1C)Oc1c(O)c(OC)cc3c1[C@H](C2)N(C)CC3` cannot be ordered by TGI: > 10 µM for the first, 37.2 µM for the second.

First: CC1(C)O[C@H]2OC(CO[Si](C)(C)C(C)(C)C)C(N=[N+]=[N-])[C@H]2O1 (stereo partly specified)
Second: Cc1ccc(-c2cc(-c3ccco3)c(C#N)c(=S)n2C2OC(CO)C(O)C(O)C2O)cc1 (stereo unspecified)
The TGI of the first is lower: 52.4 µM for the first, > 100 µM for the second.

`O=[N+]([O-])c1ccc(Cl)cc1N/N=C/c1ccnc2ccccc12` and `COc1ccc(-n2c(C)nc3ccc(NC(=S)Nc4ccccc4)cc3c2=O)cc1` cannot be ordered by TGI: > 100 µM for the first, > 100 µM for the second.

`Oc1ccc(Cc2cc(Cc3ccc(O)cc3)cc(Cc3ccc(O)cc3)c2)cc1` and `Cc1ccc(N(Cc2ccccc2)Cc2ccccc2)cc1` cannot be ordered by TGI: > 50 µM for the first, > 100 µM for the second.

`Nc1ncnc2c1[nH]c(=O)n2-c1ccccc1` and `COc1nncc2[nH]c(-c3ccccc3)cc12` cannot be ordered by TGI: > 100 µM for the first, > 100 µM for the second.

`CC1CN(C)c2ccccc2N=C1NN` (stereo unspecified) and `O=C(NCc1ccccc1)c1n[nH][nH]c1=O` cannot be ordered by TGI: > 100 µM for the first, > 100 µM for the second.

`CC(=O)Oc1cccc2c1C(=O)CCCC2` and `O=S(=O)(c1ccccc1)c1cccc2c1NCCC2` cannot be ordered by TGI: > 100 µM for the first, > 100 µM for the second.

`CCN(CC)C(=S)N/N=C/c1cc([N+](=O)[O-])ccc1O` and `NC(=O)C(=Cn1c(=S)[nH]c2ccc([N+](=O)[O-])cc21)C(N)=O` cannot be ordered by TGI: > 100 µM for the first, > 100 µM for the second.

`Cc1ccc(NC(=O)CC2Sc3ccccc3NC2=O)cc1C` (stereo unspecified) and `O=C(Cc1ccc(O)c(O)c1)NCc1c[nH]c2ccccc12` cannot be ordered by TGI: > 100 µM for the first, > 100 µM for the second.

`N[C@@H](CCC(=O)NCP(=O)(O)O)C(=O)O` and `CCOP(=O)(OCC)C(F)(F)c1ccc(CC(NC(=O)OC(C)(C)C)C(=O)O)cc1` (stereo unspecified) cannot be ordered by TGI: > 100 µM for the first, > 10 µM for the second.

`CCC(=O)NC(Nc1cc(C)on1)(C(F)(F)F)C(F)(F)F` and `CCC(=O)NCC1CCCN2CCCCC12` (stereo unspecified) cannot be ordered by TGI: > 100 µM for the first, > 100 µM for the second.

First: O=C(C1OC1c1ccc(Br)cc1O)C12CC3CC(CC(C3)C1)C2 (stereo unspecified)
Second: Nc1nc(-c2ccccc2)nc2oc(-c3cccs3)nc12
The TGI of the first is lower: 35.4 µM for the first, > 100 µM for the second.

For `c1ccc2c3[nH]c(c2c1)=Nc1ccc(cc1)-c1nc2cc(ccc2o1)N=c1[nH]c(c2ccccc12)=Nc1ccc2nc(oc2c1)-c1ccc(cc1)N=3`, the TGI was > 100 µM.

For `COc1ccc2[nH]cc(/C=C(/C)c3ccncc3)c2c1`, the TGI was 27.2 µM and > 100 µM.
`O=C1C=C[C@@H](COC2OC(CO)C(O)C(O)C2O)O1` (stereo partly specified) was tested, and the TGI was 16.1 µM and 15.8 µM.

For `COc1ccc(CN2C(=O)/C(=C\c3cc(OC)c(OC)c(OC)c3)c3ccccc32)cc1`, the GI50 was 2.15 µM.

What follows are compounds tested on KM12 colon (assay: NCI-60 cell line screen, 48 h).

Compared with `COc1cccc(Nc2nc(-c3cccs3)nc3cc(OC)c(OC)cc23)c1`, `COc1ccc2[nH]cc(/C=C(/C)c3ccncc3)c2c1` is higher in TGI: 87.1 µM for the first, > 100 µM for the second.

`Cc1cc(Nc2ccc(S(=O)(=O)O)c3cc(S(=O)(=O)O)cc(S(=O)(=O)O)c23)c2ccccc2n1` and `Cc1cc(C)nc(NS(=O)(=O)c2ccc(NC(=O)c3ccc4nc5ccccc5c(Nc5ccc(S(N)(=O)=O)cc5)c4c3)cc2)n1` cannot be ordered by TGI: > 100 µM for the first, > 100 µM for the second.

Going from `CC1(C(=O)O)CCC2(C)CCC3(C)C(=CC(=O)C4C5(C)CCC(O)C(C)(C)C5CCC43C)C2C1` (stereo unspecified) to `COC(=O)[C@@H](O)[C@](O)(CCC(C)C)C(=O)O[C@@H]1C(OC)=C[C@]23CCCN2CCc2cc4c(cc2[C@H]13)OCO4`, the TGI falls from 37.3 µM to 13 µM (2.9-fold).

`Cn1c2ccc3cc2c(=S)c2cc(ccc21)OCCOCCOCCOCCOCCOCCO3` and `O=[N+]([O-])c1ccc(Cl)cc1N/N=C/c1ccnc2ccccc12` cannot be ordered by TGI: > 10 µM for the first, > 100 µM for the second.

In the case of `CC1(C)O[C@H]2OC(CO[Si](C)(C)C(C)(C)C)C(N=[N+]=[N-])[C@H]2O1` (stereo partly specified), the TGI is reported as 34.2 µM.

In the case of `COc1ccc2[nH]cc(/C=C(/C)c3ccncc3)c2c1`, the GI50 is reported as 0.796 µM.
